Reference: US20220041606A1, “POSITIVE ALLOSTERIC MODULATORS OF THE MUSCARINIC ACETYLCHOLINE RECEPTOR M1” (Vanderbilt University, priority 2020, published 2022)

What was measured:
[1] = target: T1, human mAChR M1 (Homo sapiens, UniProt P11229); assay: mAChR M1 cell-based functional assay (calcium mobilization), PAM activity: increase in the EC20 acetylcholine response; conditions: CHO-K1 cells expressing hM1; potentiation of EC20 acetylcholine response
T1 construct: host or cells: CHO-K1 cells (ATCC), stably transfected using Lipofectamine2000
T1 sequence (P11229 1-460): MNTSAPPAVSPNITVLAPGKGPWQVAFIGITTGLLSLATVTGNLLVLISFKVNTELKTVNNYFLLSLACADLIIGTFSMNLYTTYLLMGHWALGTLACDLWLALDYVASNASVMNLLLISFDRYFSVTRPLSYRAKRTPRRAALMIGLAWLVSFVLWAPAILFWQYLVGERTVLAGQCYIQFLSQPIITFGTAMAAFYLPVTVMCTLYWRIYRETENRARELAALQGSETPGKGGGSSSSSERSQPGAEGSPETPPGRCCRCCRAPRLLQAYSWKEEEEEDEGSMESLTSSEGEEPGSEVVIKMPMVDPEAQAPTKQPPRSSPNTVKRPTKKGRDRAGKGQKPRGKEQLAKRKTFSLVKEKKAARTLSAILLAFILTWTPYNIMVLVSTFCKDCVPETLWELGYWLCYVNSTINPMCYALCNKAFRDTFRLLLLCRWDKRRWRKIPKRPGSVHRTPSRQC
Text: (§1) Chinese hamster ovary (CHO-K1) cells stably expressing rat (r)M1 were purchased from the American Type Culture Collection and cultured according to their indicated protocol. CHO cells stably expressing human (h)M2, hM3, and hM5 were described previously (Levey, et al., 1991); hM1 and hM4 cDNAs were purchased from Missouri S&T cDNA Resource; rM4 cDNA was provided by T. L. Bonner (National Institutes of Health, Bethesda, MID). rM2 and rM3 were cloned from a rat brain cDNA library and sequence verified. hM1, rM2, rM3, hM4, and rM4 cDNAs were used to stably transfect CHO-K1 cells purchased from the American Type Culture Collection using Lipofectamine2000. To make stable rM2, hM2, rM3, hM4, and rM4 cell lines for use in calcium mobilization assays, these cells also were stably transfected with a chimeric G-protein (Gqi5) (provided by B. R. Conklin, University of California, San Francisco) using Lipofectamine 2000. rM1, hM1, rM3, hM3, rM5, and hM5 cells were grown in Ham's F-12 medium containing 10% heat-inactivated fetal bovine serum (FBS), 20 mM HEPES, and 50 μg/mL G418 sulfate. rM2-Gq15, hM2-Gqi5, and hM4-Gqi5 cells were grown in the same medium also containing 500 μg/mL Hygromycin B. Stable rM4-Gqi5 cells were grown in DMEM containing 10% heat-inactivated FBS, 20 mM HEPES, 400 μg/mL G418 sulfate, and 500 μg/mL Hygromycin B.
(§2) For high throughput measurement of agonist-evoked increases in intracellular calcium, CHO-K1 cells stably expressing muscarinic receptors were plated in growth medium lacking G418 and hygromycin at 15,000 cells/20 μL/well in Greiner 384-well black-walled, tissue culture (TC)-treated, clear-bottom plates (VWR). Cells were incubated overnight at 37° C. and 5% CO2. The next day, cells were washed using an ELX 405 (BioTek) with four washes (80 μL) of assay buffer then aspirated to 20 μL. Next, 20 μL of 16 μM Fluo-4/acetoxymethyl ester (Invitrogen, Carlsbad, Calif.) prepared as a 2.3 mM stock in DMSO and mixed in a 1:1 ratio with 10% (w/v) Pluronic F-127 and diluted in assay buffer was added to the wells and the cell plates were incubated for 50 min at 37° C. and 5% CO2. Dye was removed by washing with the ELX 405 (four 80 μL washes of assay buffer) then aspirated to 20 μL. Compound master plates were formatted in an 11 point CRC format (1:3 dilutions) in 100% DMSO with a starting concentration of 10 mM using the BRAVO liquid handler (Agilent). Test compound CRCs were then transferred to daughter plates (240 nL) using the Echo acoustic plate reformatter (Labcyte, Sunnyvale, Calif.) and then diluted into assay buffer (40 μL) to a 2× stock using a Thermo Fisher Combi (Thermo Fisher Scientific, Waltham, Mass.).
(§3) Calcium flux was measured using the Functional Drug Screening System (FDSS) 6000 (Hamamatsu Corporation, Tokyo, Japan) as an increase in the fluorescent static ratio. Compounds were applied to cells (20 μL, 2×) using the automated system of the FDSS 6000 at 4 s into the 300 s protocol and the data were collected at 1 Hz. At 144 s into the 300s protocol, 10 μL of an EC20 concentration of the muscarinic receptor agonist acetylcholine was added (5×), followed by the addition of 12 μL an EC80 concentration of acetylcholine at the 230 s time point (5×). Agonist activity was analyzed as a concentration-dependent increase in calcium mobilization upon compound addition. Emax values for agonist activity are expressed relative to the maximum for acetylcholine. Positive allosteric modulator activity was analyzed as a concentration-dependent increase in the EC20 acetylcholine response. Antagonist activity was analyzed as a concentration-dependent decrease in the EC80 acetylcholine response. Concentration-response curves were generated using a four-parameter logistical equation in XLfit curve fitting software (IDBS, Bridgewater, N.J.) for Excel (Microsoft, Redmond, Wash.) or Prism (GraphPad Software, Inc., San Diego, Calif.). […]

[2] = target: T1, human mAChR M1; assay: mAChR M1 cell-based functional assay (calcium mobilization), agonist activity upon compound addition; conditions: CHO-K1 cells expressing hM1; for Emax: relative to the maximum for acetylcholine; for EC50: compound alone, before acetylcholine addition
Text: as §1, §2, §3

Row | Compound | EC50 [1] [nM] | Emax [1] [%] | Emax [2] [%] | EC50 [2] [µM]
1 | Cn1cc(-c2ccc(Cn3cc(C(=O)N[C@H]4CCOC[C@@H]4O)c4nccn4c3=O)cn2)cn1 [Compound B10, N-((3R,4S)-3-hydroxytetrahydro-2H-pyran-4-yl)-6-((6-(1-methyl-1H-pyrazol-4-yl)pyridin-3-yl)methyl)-5-oxo-5,6-dihydroimidazo[1,2-c]pyrimidine-8-carboxamide] | 480 | 60 | 41 | –
2 | Cn1cc2c(-c3cc(F)c(Cn4cc(C(=O)N[C@H]5CCOC[C@@H]5O)c5sccc5c4=O)c(F)c3)cccc2n1 [Compound D30, 5-(2,6-difluoro-4-(2-methyl-2H-indazol-4-yl)benzyl)-N-((3R,4S)-3-hydroxytetrahydro-2H-pyran-4-yl)-4-oxo-4,5-dihydrothieno[3,2-c]pyridine-7-carboxamide] | 4520 | 69 | < 5 | > 10
3 | Cn1ccc(-c2ccc(Cn3cc(C(=O)N[C@H]4CCCC[C@@H]4O)c4occc4c3=O)c(F)c2)n1 [Compound D7, 5-(2-fluoro-4-(1-methyl-1H-pyrazol-3-yl)benzyl)-N-((1S,2S)-2-hydroxycyclohexyl)-4-oxo-4,5-dihydrofuro[3,2-c]pyridine-7-carboxamide] | 6050 | 82 | < 5 | > 10
4 | Cn1nccc1-c1ccc(Cn2cc(C(=O)N[C@H]3CCC[C@@H]3O)c3nccn3c2=O)c(F)c1 [Compound B33, 6-(2-fluoro-4-(1-methyl-1H-pyrazol-5-yl)benzyl)-N-((1S,2S)-2-hydroxycyclopentyl)-5-oxo-5,6-dihydroimidazo[1,2-c]pyrimidine-8-carboxamide] | 2230 | 57 | < 5 | > 10
5 | O=C(N[C@H]1CCCC[C@@H]1O)c1cn(Cc2ccc(-n3cccn3)cc2)c(=O)n2ccnc12 [Compound B13, 6-(4-(1H-pyrazol-1-yl)benzyl)-N-((1S,2S)-2-hydroxycyclohexyl)-5-oxo-5,6-dihydroimidazo[1,2-c]pyrimidine-8-carboxamide] | 100 | 70 | 55 | 3.17
6 | O=C(N[C@H]1CCCC[C@@H]1O)c1cn(Cc2ccc(-n3cccn3)cc2)c(=O)c2ccoc12 [Compound D3, 5-(4-(1H-pyrazol-1-yl)benzyl)-N-((1S,2S)-2-hydroxycyclohexyl)-4-oxo-4,5-dihydrofuro[3,2-c]pyridine-7-carboxamide] | 5120 | 62 | < 5 | > 10
7 | O=C(N[C@H]1CCCCC[C@@H]1O)c1cn(Cc2ccc(-n3cccn3)cc2)c(=O)c2cccnc12 [Compound A25, 6-(4-(1H-pyrazol-1-yl)benzyl)-N-((1S,2S)-2-hydroxycycloheptyl)-5-oxo-5,6-dihydro-1,6-naphthyridine-8-carboxamide] | 970 | 68 | < 5 | > 10
8 | Cn1cc2c(-c3cc(F)c(Cn4cc(C(=O)NCC5CCCO5)c5occc5c4=O)c(F)c3)cccc2n1 (centres unmarked) [Compound D25, 5-(2,6-difluoro-4-(2-methyl-2H-indazol-4-yl)benzyl)-4-oxo-N-((tetrahydrofuran-2-yl)methyl)-4,5-dihydrofuro[3,2-c]pyridine-7-carboxamide] | > 10000 | 53 | < 5 | > 10
9 | Cn1cc2c(-c3cc(F)c(Cn4cc(C(=O)N[C@H]5CCC[C@@H]5O)c5nccn5c4=O)c(F)c3)cccc2n1 [Compound B21, 6-(2,6-difluoro-4-(2-methyl-2H-indazol-4-yl)benzyl)-N-((1S,2S)-2-hydroxycyclopentyl)-5-oxo-5,6-dihydroimidazo[1,2-c]pyrimidine-8-carboxamide] | 900 | 59 | < 5 | > 10
10 | Cc1cncc(-c2cc(F)c(Cn3cc(C(=O)N[C@H]4CCCC[C@@H]4O)c4ncccc4c3=O)c(F)c2)c1 [Compound A43, 6-(2,6-difluoro-4-(5-methylpyridin-3-yl)benzyl)-N-((1S,2S)-2-hydroxycyclohexyl)-5-oxo-5,6-dihydro-1,6-naphthyridine-8-carboxamide] | 640 | 51 | < 5 | > 10
11 | Cn1cc2c(-c3cc(F)c(Cn4cc(C(=O)N[C@H]5CCCCC[C@@H]5O)c5sccc5c4=O)c(F)c3)cccc2n1 [Compound D33, 5-(2,6-difluoro-4-(2-methyl-2H-indazol-4-yl)benzyl)-N-((1S,2S)-2-hydroxycycloheptyl)-4-oxo-4,5-dihydrothieno[3,2-c]pyridine-7-carboxamide] | 5290 | 42 | < 5 | > 10
12 | Cn1ccc(-c2ccc(Cn3cc(C(=O)NC4CC5(COC5)C4)c4occc4c3=O)c(F)c2)n1 [Compound D10, 5-(2-fluoro-4-(1-methyl-1H-pyrazol-3-yl)benzyl)-4-oxo-N-(2-oxaspiro[3.3]heptan-6-yl)-4,5-dihydrofuro[3,2-c]pyridine-7-carboxamide] | > 10000 | 25 | < 5 | > 10
13 | Cc1cncc(-c2cc(F)c(Cn3cc(C(=O)N[C@H]4CCOC[C@@H]4O)c4ncccc4c3=O)c(F)c2)c1 [Compound A33, 6-(2,6-difluoro-4-(5-methylpyridin-3-yl)benzyl)-N-((3R,4S)-3-hydroxytetrahydro-2H-pyran-4-yl)-5-oxo-5,6-dihydro-1,6-naphthyridine-8-carboxamide] | 860 | 64 | 13 | 3.22
14 | Cn1nccc1-c1cc(F)c(Cn2cc(C(=O)N[C@H]3CCOC[C@@H]3O)c3nccn3c2=O)c(F)c1 [Compound B36, 6-(2,6-difluoro-4-(1-methyl-1H-pyrazol-5-yl)benzyl)-N-((3R,4S)-3-hydroxytetrahydro-2H-pyran-4-yl)-5-oxo-5,6-dihydroimidazo[1,2-c]pyrimidine-8-carboxamide] | 1250 | 78 | < 5 | > 10
15 | Cc1cncc(-c2cc(F)c(Cn3cc(C(=O)N[C@H]4CCC[C@@H]4O)c4ncccc4c3=O)c(F)c2)c1 [Compound A44, 6-(2,6-difluoro-4-(5-methylpyridin-3-yl)benzyl)-N-((1S,2S)-2-hydroxycyclopentyl)-5-oxo-5,6-dihydro-1,6-naphthyridine-8-carboxamide] | ≥ 10000 | 26 | < 5 | > 10
